According to EPA's ToxValDB 9.5 (doi:10.2903/j.efsa.2006.83r):
Values after ≈ are worked out from the molar mass of the structure shown. Values joined by “and” are separate entries in the source; they are usually repeats but may differ in a detail not shown here. Identical values can stand only once.

Columns and labels:
Aphidius rhopalosiphi = test: LR50; higher = less toxic; conditions: acute; duration: 48 hours; mortality
Pimephales promelas = conditions: chronic/long-term
Apis mellifera = conditions: acute; duration: 48 hours; dermal; mortality
Daphnia magna = conditions: chronic/long-term; duration: 21 days
Tagia sp. = conditions: acute; duration: 14 days; mortality
Lepomis macrochirus = conditions: acute; duration: 96 hours; mortality
Rattus norvegicus = conditions: acute; oral; gavage; M/F; clinical chemistry

CNC(=O)ON=C(C)SC [Methomyl]
LR50 (Aphidius rhopalosiphi): 0.25 g/ha | NOEC (Pimephales promelas): 0.073 mg/L | LD50 (Colinus virginianus; acute, oral, mortality): 24.2 mg/kg and 30.4 mg/kg | NOEC (Colinus virginianus; reproduction developmental): 150 mg/kg-day | LD50 (Apis mellifera): 0.16 µg/piece | NOEC (Daphnia magna): 0.0016 mg/L | NOEC (Anas platyrhynchos; reproductive): 150 mg/kg | LC50 (Anas platyrhynchos; short-term, oral, feed, mortality): 3950 mg/kg | LC50 (Tagia sp.): 19 mg/kg | LD50 (acute, oral, unspecified, mortality): 30 mg/kg | NOAEL (reproductive, development): 75 mg/kg | LC50 (Lepomis macrochirus): 0.63 µg/mL (≈ 3.88 µM) | NOAEL (Rattus norvegicus): 0.25 mg/kg-day
